Experimental findings from patent publication US20050124631A1, “Inhibitors of polyq-aggregation” (priority 2001, published 2005) are described below.

As a reminder, the melting point is the temperature, or range, at which the solid turns liquid. `Cc1ccc(Cl)c2sc(N)nc12` [Example 2, 2-Amino-7-chloro-4-methylbenzothiazole]: the melting point worked out at 206 °C.
